Marks after values point to notes of the source that are not given here.

Test [1] has as its system MDAMB231. As to the kind of experiment: Proliferation panel assay, MDAMB231. Type of test: cell-based. Conditions: Homo sapiens, MDA-MB-231, 120 h; Breast, MDAMB231, 5 days; read-out: Cellular Proliferation EC50. As for the experimental part: (§1) The impact of compounds of the Examples on cancer cell proliferation was determined using the breast cancer cell line MX-1 (ATCC) in a 3-day proliferation assay. MX-1 cells were maintained in RPMI supplemented with 10% FBS at 37 C.° and an atmosphere of 5% CO2. For compound testing, MX-1 cells were plated in 96-well black bottom plates at a density of 5000 cells/well in 90 μl of culture media and incubated at 37° overnight to allow cell adhesion and spreading. Compound dilution series were prepared in DMSO via a 3-fold serial dilution from 3 mM to 0.1 μM. […]
(§2) Luminescence readings from the Cell Titer Glo assay were normalized to the DMSO treated cells and analyzed using the GraphPad Prism software with sigmoidal curve fitting to obtain EC50s. The minimum significant ratio (MSR) was determined to evaluate assay reproducibility (Eastwood et al., (2006) J Biomol Screen, 11: 253-261). The overall MSR was determined to be 2.1 and a moving MSR (last six run MSR overtime) has been <2.
(§3) The compound of Example 40 was tested for its impact on proliferation of a panel of cancer cell line types (with specific cell lines tested) as set out in (Table 2). […] Cell proliferation data were analyzed as described above in the MX-1 proliferation assay to obtain the EC50 for the compounds reported in Table 2.

Test [2] has as its system DLD-1. Briefly: Proliferation panel assay, DLD-1. Conditions: Homo sapiens, 120 h; Colon, DLD-1, 5 days; read-out: Cellular Proliferation EC50. Format: cell-based. As for the experimental part:
as §1, §2, §3

Test [3] has as its system GEO. Briefly: Proliferation panel assay, GEO. Type of test: cell-based. Conditions: 120 h, Colon, 5 days, read-out: Cellular Proliferation EC50. As for the experimental part: as §1, §2, §3
In test [4] the test system is OPM2. Briefly: Proliferation panel assay, OPM2. Format: cell-based. The note with it: Homo sapiens, OPM-2, 120 h; Multiple Myeloma, OPM2, 5 days; read-out: Cellular Proliferation EC50. As for the experimental part: as §1, §2, §3
The subject of test [5] is Ramos. Briefly: Proliferation panel assay, Ramos. Format: cell-based. The note with it: Homo sapiens, 120 h, NHL, 5 days, read-out: Cellular Proliferation EC50. As for the experimental part: as §1, §2, §3
Test [6] relates to H1299. Briefly: Proliferation panel assay, H1299. Format: cell-based. Conditions: Homo sapiens, NCI-H1299, 120 h; NSCLC, H1299, 5 days; read-out: Cellular Proliferation EC50. As for the experimental part:
as §1, §2, §3

Test [7] deals with H460. Briefly: Proliferation panel assay, H460. Format: cell-based. The note with it: Homo sapiens, NCI-H460, 120 h; NSCLC, H460, 5 days; read-out: Cellular Proliferation EC50. As for the experimental part:
as §1, §2, §3

For test [8], the system named is HPAC. As to the kind of experiment: Proliferation panel assay, HPAC. Conditions: Homo sapiens, 120 h, Pancreas, 5 days, read-out: Cellular Proliferation EC50. Type of test: cell-based. As for the experimental part:
as §1, §2, §3

Test [9] concerns PC3M. Briefly: Proliferation panel assay, PC3M. Format: cell-based. The note with it: Homo sapiens, PC-3M, 120 h, Prostate, 5 days, read-out: Cellular Proliferation EC50. As for the experimental part: as §1, §2, §3
The subject of test [10] is 786-0. Briefly: Proliferation panel assay, 786-0. Format: cell-based. The note with it: Homo sapiens, 120 h; RCC, 786-0, 5 days; read-out: Cellular Proliferation EC50. As for the experimental part: as §1, §2, §3
The test system of test [11] is SK-LMS-1. As to the kind of experiment: Proliferation panel assay, SK-LMS-1. Format: cell-based. The note with it: Homo sapiens, 120 h; Sarcoma, SK-LMS-1, 5 days; read-out: Cellular Proliferation EC50. As for the experimental part:
as §1, §2, §3

The test system of test [12] is OPM-2 human multiple myeloma cancer xenograft. As to the kind of experiment: Xenograft tumor growth inhibition assay, OPM-2. Type of test: in vivo, mice. Conditions: OPM-2 xenograft. As for the experimental part: The effect of the compound of Example 40 to inhibit the growth of Ramos, OPM-2, MX-1, MV4-11, and HT1080 xenograft tumors was evaluated. Briefly, 0.5×10^6 human cancer cells (HT1080), 1×10^6 human cancer cells (Ramos), 5×10^6 human cancer cells (OPM-2, MV4-11) or 1:10 tumor brie (MX-1) (in S-MEM (MEM, Suspension, no Calcium, no Glutamine)) (Life Technologies Corporation) were inoculated subcutaneously into the right hind flank of female SCID or SCID-beige (MV4-11, HT1080) mice (Charles Rivers Labs) on study day 0. Compound was formulated in 2% EtOH, 5% Tween-80, 20% PEG-400, 73% HPMC (Ramos, OPM-2 and MX-1) or 5% DMSO, 5% EtOH, 30% PEG400, 60% Phosal 53 (MV4-11, HT1080). Administration of compound was initiated at the time of size match on day 8 (HT1080), day 17 (MX-1), or day 18 (Ramos, MV4-11, OPM-2). The tumors were measured by a pair of calipers twice a week starting at the time of size match and tumor volumes were calculated according to the formula V=L×W^2/2 (V: volume, mm^3; L: length, mm. W: width, m) Tumor volume was measured for the duration of the experiment until the mean tumor volume in each group reached an endpoint of >1000 mm^3.

With `Cc1[nH]c(-c2cc(NS(C)(=O)=O)ccc2Oc2ccccc2)c2c1C(=O)CCC2` [Example 40, N-[3-(3-methyl-4-oxo-4,5,6,7-tetrahydro-2H-isoindol-1-yl)-4-phenoxyphenyl]methanesulfonamide], the EC50 in test [1] was found to be 310 nM; in test [2], 450 nM; in [3] it was 380 nM; in test [4] it was 18 nM; in test [5] it was 340 nM; in [6], 360 nM. Further, the EC50 was more than 10000 nM in [7]; 290 nM in [8]; 410 nM in test [9]; 139 nM in [10]; 176 nM in test [11]. Also, the “% TGI (tumor growth inhibition)” value in test [12] (10 mg/kg/day PO, BIDx14, based on day 31) is listed as 11%; in test [12] (10 mg/kg/day PO, QDx14, based on day 31) it was 16%; in test [12] (30 mg/kg/day PO, BIDx14, based on day 31) it was 31* %; in test [12] (30 mg/kg/day PO, QDx14, based on day 31), 27* %; in test [12] (100 mg/kg/day PO, BIDx14, based on day 31), 43** %; in test [12] (100 mg/kg/day PO, QDx14, based on day 31), 41** %. Moreover, the “% TGD (tumor growth delay)” value is listed as 25% in test [12] (10 mg/kg/day PO, BIDx14, endpoint 1000 mm^3); 25% in [12] (10 mg/kg/day PO, QDx14, endpoint 1000 mm^3); 88* % in test [12] (30 mg/kg/day PO, BIDx14, endpoint 1000 mm^3); 63% in test [12] (30 mg/kg/day PO, QDx14, endpoint 1000 mm^3); 175*** % in test [12] (100 mg/kg/day PO, BIDx14, endpoint 1000 mm^3); 88*** % in test [12] (100 mg/kg/day PO, QDx14, endpoint 1000 mm^3).

Values taken from patent publication US9776990B2, “Isoindolone derivatives” (AbbVie Inc., priority 2012, dated 2017).
